± gives the expanded uncertainty stated by the source.
Columns and labels:
[1] = Liquid; for mass density: 94.9 kPa, Vibrating tube method; for vapor or sublimation pressure: Ebulliometric method (Recirculating still)
[2] = refractive index (Na D-line) (dimensionless); conditions: 94.9 kPa, Liquid, (Schmidt +Haensch) refractometer (Model DSR lambda)
[3] = xn = mol fraction of the nth substance listed; conditions: 94.9 kPa, Liquid, Vibrating tube method, x2 = 0
[4] = refractive index (Na D-line) (dimensionless); xn = mol fraction of the nth substance listed; conditions: 94.9 kPa, Liquid, (Schmidt +Haensch) refractometer (Model DSR lambda), x2 = 0

| SMILES | mass density ([1]; 293.15 K) | mass density ([1]; 298.15 K) | mass density ([1]; 303.15 K) | mass density ([1]; 308.15 K) | mass density ([1]; 313.15 K) | mass density ([1]; 318.15 K) | mass density ([1]; 323.15 K) | mass density ([1]; 333.15 K) | refractive index ([2]; 293.15 K) | refractive index ([2]; 298.15 K) | refractive index ([2]; 303.15 K) | refractive index ([2]; 308.15 K) | refractive index ([2]; 313.15 K) | refractive index ([2]; 318.15 K) | refractive index ([2]; 323.15 K) | refractive index ([2]; 333.15 K) | mass density ([3]; 293.15 K) | mass density ([3]; 303.15 K) | mass density ([3]; 313.15 K) | mass density ([3]; 323.15 K) | also measured |
| --- | --- | --- | --- | --- | --- | --- | --- | --- | --- | --- | --- | --- | --- | --- | --- | --- | --- | --- | --- | --- | --- |
| Cc1ccccc1 [toluene] | 866.68 ± 4 kg/m3 | 861.74 ± 4 kg/m3 | 857.39 ± 4 kg/m3 | 851.69 ± 4 kg/m3 | 847.82 ± 4 kg/m3 | 842.88 ± 4 kg/m3 | 838.42 ± 4 kg/m3 | 828.94 ± 4 kg/m3 | 1.49666 ± 0.0024 | 1.49386 ± 0.0024 | 1.49193 ± 0.0024 | 1.48821 ± 0.0024 | 1.48536 ± 0.0024 | 1.48249 ± 0.0024 | 1.47968 ± 0.0024 | 1.47401 ± 0.0024 | – | – | – | – | – |
| CCCCCCCCO [octan-1-ol] | 825.57 ± 4 kg/m3 | 821.9 ± 4 kg/m3 | 818.08 ± 4 kg/m3 | 814.31 ± 4 kg/m3 | 811.09 ± 4 kg/m3 | 807.7 ± 4 kg/m3 | 804.05 ± 4 kg/m3 | 796.88 ± 4 kg/m3 | 1.4295 ± 0.0024 | 1.42748 ± 0.0024 | 1.42561 ± 0.0024 | 1.42369 ± 0.0024 | 1.42169 ± 0.0024 | 1.41973 ± 0.0024 | 1.41783 ± 0.0024 | 1.41407 ± 0.0024 | – | – | – | – | – |
| C1COCCN1 [tetrahydro-1,4-oxazine] | 999.54 ± 4 kg/m3 | – | 989.89 ± 4 kg/m3 | – | 979.82 ± 4 kg/m3 | – | 969.78 ± 4 kg/m3 | 959.74 ± 4 kg/m3 | 1.45453 ± 0.0024 | – | 1.45031 ± 0.0024 | – | 1.44574 ± 0.0024 | – | 1.44113 ± 0.0024 | 1.43562 ± 0.0024 | – | – | – | – | vapor or sublimation pressure ([1]; 343.91 K): 13.32 ± 1 kPa; vapor or sublimation pressure ([1]; 372.25 K): 39.99 ± 1 kPa; vapor or sublimation pressure ([1]; 387.57 K): 66.66 ± 1 kPa; vapor or sublimation pressure ([1]; 398.92 K): 94.9 ± 1 kPa |
| CCCCCCCCCCO [decan-1-ol] + C1COCCN1 | – | – | – | – | – | – | – | – | – | – | – | – | – | – | – | – | 830.01 ± 4 kg/m3 | 823.54 ± 4 kg/m3 | 816.13 ± 4 kg/m3 | 808.84 ± 4 kg/m3 | mass density ([3]; 333.15 K): 801.43 ± 4 kg/m3; refractive index ([4]; 293.15 K): 1.43711 ± 0.0024; refractive index ([4]; 303.15 K): 1.43332 ± 0.0024; refractive index ([4]; 313.15 K): 1.42949 ± 0.0024; refractive index ([4]; 323.15 K): 1.42564 ± 0.0024; refractive index ([4]; 333.15 K): 1.42189 ± 0.0024 |
| CCCCCCCCCCO [decan-1-ol] | 830.01 ± 4 kg/m3 | – | 823.54 ± 4 kg/m3 | – | 816.13 ± 4 kg/m3 | – | 808.84 ± 4 kg/m3 | 801.43 ± 4 kg/m3 | 1.43711 ± 0.0024 | – | 1.43332 ± 0.0024 | – | 1.42949 ± 0.0024 | – | 1.42564 ± 0.0024 | 1.42189 ± 0.0024 | – | – | – | – | vapor or sublimation pressure ([1]; 436.56 K): 13.32 ± 1 kPa; vapor or sublimation pressure ([1]; 469.52 K): 39.99 ± 1 kPa; vapor or sublimation pressure ([1]; 487.85 K): 66.66 ± 1 kPa; vapor or sublimation pressure ([1]; 501.05 K): 94.9 ± 1 kPa |
| Cc1ccccc1 [toluene] + CCCCCCCCO | – | – | – | – | – | – | – | – | – | – | – | – | – | – | – | – | 866.68 ± 4 kg/m3 | 857.39 ± 4 kg/m3 | 847.82 ± 4 kg/m3 | 838.42 ± 4 kg/m3 | mass density ([3]; 298.15 K): 861.74 ± 4 kg/m3; mass density ([3]; 308.15 K): 851.69 ± 4 kg/m3; mass density ([3]; 318.15 K): 842.88 ± 4 kg/m3; mass density ([3]; 333.15 K): 828.94 ± 4 kg/m3; refractive index ([4]; 293.15 K): 1.49666 ± 0.0024; refractive index ([4]; 298.15 K): 1.49386 ± 0.0024; refractive index ([4]; 303.15 K): 1.49193 ± 0.0024; refractive index ([4]; 308.15 K): 1.48821 ± 0.0024; refractive index ([4]; 313.15 K): 1.48536 ± 0.0024; refractive index ([4]; 318.15 K): 1.48249 ± 0.0024; refractive index ([4]; 323.15 K): 1.47968 ± 0.0024; refractive index ([4]; 333.15 K): 1.47401 ± 0.0024 |
